According to patent US8969516B2, “Method of hydrolysis of peptide bond” (priority 2006, dated 2015):

Test: MALDI-TOF screening of Ni^2+ dependent hydrolysis in a combinatorial peptide library
Format: physicochemical
Details: CH3CO-Gly-Ala-Ser-X-His-Z-Lys-Phe-Leu-NH2 library, Ni^2+ 2 mM, pH 8.2, 10 mM Tris, score=24/tm
Method in brief: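 The screen used 1 mM peptide mixtures in 10 mM Tris, pH 8.2, with 2 mM Ni2+ at two temperatures, 37 °C and 45 °C. Product appearance and substrate decline were monitored visually by MALDI-TOF over 8 h. Scores for X and Z were then summed by row and column to rank substitutions.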

Row | Substance | hydrolysis score from MALDI-TOF screening (37° C.) | hydrolysis score from MALDI-TOF screening (45° C.)
1 | Ac-GASIHTKFL-NH2 [SIHT] | 0 (a score of 0 if no trace of the product of hydrolysis was seen after 8 hours of incubation) | 0 (a score of 0 if no trace of the product of hydrolysis was seen after 8 hours of incubation)
2 | Ac-GASIHVKFL-NH2 [SIHV] | 3 (a score of 3 for detection at 8 hours) | 3 (a score of 3 for detection at 8 hours)
3 | Ac-GASIHWKFL-NH2 [SIHW] | 3 (a score of 3 for detection at 8 hours) | 3 (a score of 3 for detection at 8 hours)
4 | Ac-GASIHYKFL-NH2 [SIHY] | 0 (a score of 0 if no trace of the product of hydrolysis was seen after 8 hours of incubation) | 0 (a score of 0 if no trace of the product of hydrolysis was seen after 8 hours of incubation)
5 | Ac-GASKHAKFL-NH2 [SKHA] | 0 (a score of 0 if no trace of the product of hydrolysis was seen after 8 hours of incubation) | 0 (a score of 0 if no trace of the product of hydrolysis was seen after 8 hours of incubation)
6 | Ac-GASKHDKFL-NH2 [SKHD] | 0 (a score of 0 if no trace of the product of hydrolysis was seen after 8 hours of incubation) | 0 (a score of 0 if no trace of the product of hydrolysis was seen after 8 hours of incubation)
7 | Ac-GASKHEKFL-NH2 [SKHE] | 0 (a score of 0 if no trace of the product of hydrolysis was seen after 8 hours of incubation) | 3 (a score of 3 for detection at 8 hours)
8 | Ac-GASKHFKFL-NH2 [SKHF] | 4 (a score of 4 for detection at 6 hours) | 4 (a score of 4 for detection at 6 hours)
9 | Ac-GASKHGKFL-NH2 [SKHG] | 0 (a score of 0 if no trace of the product of hydrolysis was seen after 8 hours of incubation) | 0 (a score of 0 if no trace of the product of hydrolysis was seen after 8 hours of incubation)
10 | Ac-GASKHHKFL-NH2 [SKHH] | 4 (a score of 4 for detection at 6 hours) | 3 (a score of 3 for detection at 8 hours)
11 | Ac-GASKHIKFL-NH2 [SKHI] | 6 (a score of 6 for detection at 4 hours) | 12 (a score of 12, if it was seen to be partially hydrolysed at 2 hours)
12 | Ac-GASKHKKFL-NH2 [SKHK] | 6 (a score of 6 for detection at 4 hours) | 12 (a score of 12, if it was seen to be partially hydrolysed at 2 hours)
13 | Ac-GASKHMKFL-NH2 [SKHM] | 3 (a score of 3 for detection at 8 hours) | 4 (a score of 4 for detection at 6 hours)
14 | Ac-GASKHNKFL-NH2 [SKHN] | 0 (a score of 0 if no trace of the product of hydrolysis was seen after 8 hours of incubation) | 0 (a score of 0 if no trace of the product of hydrolysis was seen after 8 hours of incubation)
15 | Ac-GASKHPKFL-NH2 [SKHP] | 0 (a score of 0 if no trace of the product of hydrolysis was seen after 8 hours of incubation) | 0 (a score of 0 if no trace of the product of hydrolysis was seen after 8 hours of incubation)
16 | Ac-GASKHQKFL-NH2 [SKHQ] | 0 (a score of 0 if no trace of the product of hydrolysis was seen after 8 hours of incubation) | 0 (a score of 0 if no trace of the product of hydrolysis was seen after 8 hours of incubation)
17 | Ac-GASKHTKFL-NH2 [SKHT] | 0 (a score of 0 if no trace of the product of hydrolysis was seen after 8 hours of incubation) | 0 (a score of 0 if no trace of the product of hydrolysis was seen after 8 hours of incubation)
18 | Ac-GASKHVKFL-NH2 [SKHV] | 4 (a score of 4 for detection at 6 hours) | 6 (a score of 6 for detection at 4 hours)
19 | Ac-GASKHWKFL-NH2 [SKHW] | 12 (a score of 12, if it was seen to be partially hydrolysed at 2 hours) | 12 (a score of 12, if it was seen to be partially hydrolysed at 2 hours)
20 | Ac-GASKHYKFL-NH2 [SKHY] | 4 (a score of 4 for detection at 6 hours) | 4 (a score of 4 for detection at 6 hours)
21 | Ac-GASLHAKFL-NH2 [SLHA] | 0 (a score of 0 if no trace of the product of hydrolysis was seen after 8 hours of incubation) | 0 (a score of 0 if no trace of the product of hydrolysis was seen after 8 hours of incubation)

Row | Substance | hydrolysis score from MALDI-TOF screening (37° C.) | hydrolysis score from MALDI-TOF screening (45° C.)
22 | Ac-GASLHDKFL-NH2 [SLHD] | 0 (a score of 0 if no trace of the product of hydrolysis was seen after 8 hours of incubation) | 0 (a score of 0 if no trace of the product of hydrolysis was seen after 8 hours of incubation)
23 | Ac-GASLHEKFL-NH2 [SLHE] | 0 (a score of 0 if no trace of the product of hydrolysis was seen after 8 hours of incubation) | 0 (a score of 0 if no trace of the product of hydrolysis was seen after 8 hours of incubation)
24 | Ac-GASLHFKFL-NH2 [SLHF] | 0 (a score of 0 if no trace of the product of hydrolysis was seen after 8 hours of incubation) | 3 (a score of 3 for detection at 8 hours)
25 | Ac-GASLHGKFL-NH2 [SLHG] | 0 (a score of 0 if no trace of the product of hydrolysis was seen after 8 hours of incubation) | 0 (a score of 0 if no trace of the product of hydrolysis was seen after 8 hours of incubation)
26 | Ac-GASLHHKFL-NH2 [SLHH] | 0 (a score of 0 if no trace of the product of hydrolysis was seen after 8 hours of incubation) | 0 (a score of 0 if no trace of the product of hydrolysis was seen after 8 hours of incubation)
27 | Ac-GASLHIKFL-NH2 [SLHI] | 3 (a score of 3 for detection at 8 hours) | 0 (a score of 0 if no trace of the product of hydrolysis was seen after 8 hours of incubation)
28 | Ac-GASLHKKFL-NH2 [SLHK] | 3 (a score of 3 for detection at 8 hours) | 4 (a score of 4 for detection at 6 hours)
29 | Ac-GASLHLKFL-NH2 [SLHL] | 3 (a score of 3 for detection at 8 hours) | 0 (a score of 0 if no trace of the product of hydrolysis was seen after 8 hours of incubation)
30 | Ac-GASLHMKFL-NH2 [SLHM] | 0 (a score of 0 if no trace of the product of hydrolysis was seen after 8 hours of incubation) | 0 (a score of 0 if no trace of the product of hydrolysis was seen after 8 hours of incubation)
31 | Ac-GASLHNKFL-NH2 [SLHN] | 0 (a score of 0 if no trace of the product of hydrolysis was seen after 8 hours of incubation) | 0 (a score of 0 if no trace of the product of hydrolysis was seen after 8 hours of incubation)
32 | Ac-GASLHPKFL-NH2 [SLHP] | 0 (a score of 0 if no trace of the product of hydrolysis was seen after 8 hours of incubation) | 0 (a score of 0 if no trace of the product of hydrolysis was seen after 8 hours of incubation)
33 | Ac-GASLHQKFL-NH2 [SLHQ] | 0 (a score of 0 if no trace of the product of hydrolysis was seen after 8 hours of incubation) | 0 (a score of 0 if no trace of the product of hydrolysis was seen after 8 hours of incubation)
34 | Ac-GASLHRKFL-NH2 [SLHR] | 3 (a score of 3 for detection at 8 hours) | 4 (a score of 4 for detection at 6 hours)
35 | Ac-GASLHSKFL-NH2 [SLHS] | 0 (a score of 0 if no trace of the product of hydrolysis was seen after 8 hours of incubation) | 0 (a score of 0 if no trace of the product of hydrolysis was seen after 8 hours of incubation)
36 | Ac-GASLHTKFL-NH2 [SLHT] | 0 (a score of 0 if no trace of the product of hydrolysis was seen after 8 hours of incubation) | 0 (a score of 0 if no trace of the product of hydrolysis was seen after 8 hours of incubation)
37 | Ac-GASLHVKFL-NH2 [SLHV] | 0 (a score of 0 if no trace of the product of hydrolysis was seen after 8 hours of incubation) | 3 (a score of 3 for detection at 8 hours)
38 | Ac-GASLHWKFL-NH2 [SLHW] | 3 (a score of 3 for detection at 8 hours) | 4 (a score of 4 for detection at 6 hours)
39 | Ac-GASLHYKFL-NH2 [SLHY] | 0 (a score of 0 if no trace of the product of hydrolysis was seen after 8 hours of incubation) | 3 (a score of 3 for detection at 8 hours)
40 | Ac-GASMHAKFL-NH2 [SMHA] | 0 (a score of 0 if no trace of the product of hydrolysis was seen after 8 hours of incubation) | 3 (a score of 3 for detection at 8 hours)
41 | Ac-GASMHDKFL-NH2 [SMHD] | 0 (a score of 0 if no trace of the product of hydrolysis was seen after 8 hours of incubation) | 0 (a score of 0 if no trace of the product of hydrolysis was seen after 8 hours of incubation)
